Reference: patent publication US8426677B2, “Method of controlling plant growth and architecture by controlling expression of gibberellin 2-oxidase” (Academia Sinica, priority 2008, dated 2013)

B1: GA2ox6: rice class C20 gibberellin 2-oxidase (SEQ ID NO:4), expressed in E. coli and partially purified (protein, listed as Oryza sativa)
chain: MPAFADIAIDPPLADSYRALALLRRDRDGGIAPPAVQMVGSGGAVLERDLPMVDLERLTRGGAGERKACAGAMARAASEWGFFQLTNHGVGRELMEEMRREQARLFRLPFETKEKAGLLNGSYRWGNPTATSLRHLSWSEAFHVPLASISGADCDFGDLTSLRGVMQEVAEAMSRVANTVAAALAEELTGRGGGGASAAPWFPAGCDETTCFLRLNRYPACPFAADTFGLVPHTDSDFLTVLCQDQVGGLHLMKDSRWVAVRPRPDALVVNIGDLFQAWSNNRYKSVEHKVVANAKTDRLSVAYFLCPSYDSLVGTCGEPSPYRAFTFGEYRKKVQEDVRTTGKKIGLPNFFKHSSVQ
B2: GA2ox5: rice class C20 gibberellin 2-oxidase (SEQ ID NO:2), expressed in E. coli and partially purified (protein, listed as Oryza sativa)
chain: MEEHDYDSNSNPPLMSTYKHLFVEQHRLDMDMGAIDVDECELPVIDLAGLMEAEQVCRADMVRAASEWGFFQVTNHGVPQALLRELHDAQVAVFRRPFQEKVTERLLGFSPESYRWGTPTAKCLEQLSWSEAYHIPMTTPRPSTSIRARAVIEEVSRAMYELAQKLAEILMRGLPGAGEGETMVTTREETCFLRLNRYPPCAMAMGGFGLCPHTDSDLLTIVHQQQDTVGGLQLLKGGRWVAVKPSPSTLIVNVGDLLQAWSNDVYKSVEHRVMANATLERFSMAFFLCPSYHTLIIPSSSHVHDDDAHYRSFTFGEYRKQIMEDVRSTGRKIGLHRFRTR

How the values were obtained:
OSH1 mRNA = test: RT-PCR of OSH1 mRNA in embryos containing tiller buds; format: in vivo, Oryza sativa; conditions: 12 DAI
Procedure: (§1) To determine whether GA deficiency induced expression of OSH1 and TB1 that in turn promotes tillering and root development, GA2ox5Δ335-341ACT, GA2ox6ACT and wild type seedlings were grown in media with or without 5 μM GA3 after germination. Rice embryos containing tiller buds were collected at 12 DAI. […] It is not clear why the accumulation of OSH1 and TB1 mRNAs in the wild type was enhanced by GA3 (FIG. 14A), nevertheless, its stem became slenderer and adventitious root growth was inhibited similar as mutants (FIG. 14B).
(§2) Total RNA was purified from rice tissues using a Trizol reagent (Invitrogen). Total RNA (15 μg aliquots) was treated with 1 unit of RNase-free DNase I (Promega) in a 20 μL volume and incubated at 37° C. for 30 min. The RNA sample was then incubated at 65° C. for 10 min and placed on ice. cDNA synthesis was performed in a 20 μL mixture containing 1× reverse transcription reaction buffer (Invitrogen), 4.5 μg of purified RNA, 400 ng oligo (dT)16 primer, 5 mM DTT, 0.5 mM each dNTP, 40 units RNasin (Promega), and 200 units Superscript® III reverse transcriptase (Invitrogen). The reaction was carried out at room temperature (25° C.) for 10 min, transferred to 50° C. for 1 h, and terminated by heating at 72° C. for 15 min. The sample, which served as a cDNA stock for PCR analysis, was then stored at −70° C. […]

TB1 mRNA = test: RT-PCR of TB1 mRNA in embryos containing tiller buds; format: in vivo, Oryza sativa; conditions: 12 DAI
Procedure: as §1, §2

[1] = test system: GA2ox6ACT mutant and wild type rice seeds/seedlings; test: Germination and seedling growth of rice on MS agar medium with or without GA3; format: in vivo, Oryza sativa
Procedure: To determine whether the dwarfism of rice mutants overexpressing GA2ox was a result of a reduction of bio-active GAs, GA2ox6ACT mutant seeds were germinated on MS agar medium with or without supplementation with 5 μM GA3.
The rice cultivar Oryza sativa L. cv Tainung 67 was used as in this study. Four T-DNA tagged rice GA2ox mutant lines were obtained from the Taiwan Rice Insertional Mutagenesis database (TRIM database, http://trim.sinica.edu.tw/). T1 mutant seeds were surface sterilized in 2.5% NaClO for 18 minutes, washed well with sterile water, placed on MS agar medium (Murashige and Skoog Basal Medium, Sigma), and incubated at 28° C. with continuous light for 15˜20 days. Wild type rice was grown under the same conditions. Plants were transplanted to pot soil and grown in a net-house during the growing season.

[2] = test system: GA2ox6ACT mutant seedlings; test: Tiller and adventitious root development of seedlings grown in media with or without GA3; format: in vivo, Oryza sativa; conditions: 5 μM GA3 in medium
Description: (§3) Additionally, the inhibition of tillering by GA3 was independent of rice growth stage (see FIG. 15B). […] Both GA-treated GA2ox6ACT mutant and wild-type plants produced 2-3 times fewer tillers than mutant and wild-type plants without GA treatment (FIG. 15B).

[3] = test system: wild type and GA2ox6ACT plants; test: Tiller number of 1-month-old plants in pot soil sprayed with GA3; format: in vivo, Oryza sativa; conditions: 10 μM GA3 spray once every 7 days, 3 sprays, GA2ox6ACT mutant and wild type
Description: as §3

[4] = test system: Ubi::GA2ox6 transgenic rice and wild type; test: GA3 treatment of wild type and Ubi::GA2ox6 transgenic rice grown in pot soil (plant height); format: in vivo, Oryza sativa; conditions: 10 μM GA3 at a 12-day interval for 5 weeks
GA2ox6 mRNA = test: RT-PCR of GA2ox6 mRNA in leaves and roots of seedlings; format: in vivo, Oryza sativa; conditions: GA3 treatment, wild type and GA2ox6ACT mutant seedlings at 18 DAI
Procedure: Total RNA was purified from rice tissues using a Trizol reagent (Invitrogen). Total RNA (15 μg aliquots) was treated with 1 unit of RNase-free DNase I (Promega) in a 20 μL volume and incubated at 37° C. for 30 min. The RNA sample was then incubated at 65° C. for 10 min and placed on ice. cDNA synthesis was performed in a 20 μL mixture containing 1× reverse transcription reaction buffer (Invitrogen), 4.5 μg of purified RNA, 400 ng oligo (dT)16 primer, 5 mM DTT, 0.5 mM each dNTP, 40 units RNasin (Promega), and 200 units Superscript® III reverse transcriptase (Invitrogen). The reaction was carried out at room temperature (25° C.) for 10 min, transferred to 50° C. for 1 h, and terminated by heating at 72° C. for 15 min. The sample, which served as a cDNA stock for PCR analysis, was then stored at −70° C.
RT-PCR analysis was carried out in a 15 μl, solution containing 0.9 μL cDNA, 1×PCR buffer (Promega), 1.5 mM MgCl2, 0.2 mM each dNTP, 0.3 μmole each primer, 3% DMSO, and 0.6 units of Taq DNA polymerase (Promega). For GA2ox2, GA2ox7, and GA2ox8 that had very low mRNA abundance, RT-PCR analysis was carried out using KOD Hot Start DNA Polymerase (Novagen). Each 15 μL of reaction solution contained 0.9 μL cDNA, 1×PCR buffer (Novagen), 1.0 mM MgSO4, 0.2 mM each dNTP, 0.3 μmole each primer, 3% DMSO, and 1 unit of KOD Hot Start DNA Polymerase (Novagen). […]

[5] = In vitro enzyme activity of recombinant GST fusion GA2ox5 and GA2ox6 expressed in E. coli; format: biochemical, Oryza sativa; conditions: partially purified glutathione S-transferase fusion protein
Description: GA53, a precursor of GA1, could be converted to GA97 in vitro by the Arabidopsis class C20 GA2ox through 2β-hydroxylation (Schomburg et al., 2003). The in vitro activity of rice GA2ox5 and GA2ox6 were also investigated by overexpression as fusion proteins with glutathione S-transferase in E. coli. Fusion proteins were partially purified and their enzyme activity analyzed.
Full length cDNAs of GA2ox5 and GA2ox6 in the pGEM®-T Easy cloning vector were digested with BamHI and subcloned into the same site in pGEX-5X expression vector (Amersham Biosciences). The resulting expression vectors were used to transform E. coli strain BL21-CodonPlus® (DE3) RIPL (Stratagen). A volume of 5 mL transformants pre-cultured overnight in Luria-Bertani broth (LB broth, DIFCO) was transferred to 500 mL of LB broth with 100 mgL^−1 ampicillin and incubated at 37° C. until cell density reached an OD600 around 0.6˜0.8. Isopropyl-β-D-thiogalactopyranoside (IPTG) was added to the bacteria culture to a final concentration of 0.3 mM and incubated at 28° C. for another 3 hours. Bacteria were pelleted by centrifuge and harvested, resuspended in BugBuster® Protein Extraction Reagent (Novagen) at room temperature for 10˜20 minutes, and centrifuged at […] for 30 min. The supernatant protein extracts were partially purified through GST-Bind resin (Novagen), and the purified protein extracts were stored at −80° C. […]

[6] = 5 μM GA3, GA2ox5Δ335-341ACT and GA2ox6ACT mutants

Molecule | OSH1 mRNA level in mutants (OSH1 mRNA; [6]) | OSH1 mRNA accumulation in the wild type (OSH1 mRNA; 5 μM GA3, wild type) | TB1 mRNA level in mutants (TB1 mRNA; [6]) | TB1 mRNA accumulation in the wild type (TB1 mRNA; 5 μM GA3, wild type) | Root lengths of wild type and GA2ox6ACT mutant seedlings ([1]; 5 μM GA3, 18 DAI) | Height of dwarf GA2ox6ACT mutant seedlings, recovery relative to the wild type ([1]; 5 μM GA3, GA2ox6ACT mutant, 18-day-old seedlings) | Plant height of 18-day-old wild-type seedlings ([1]; 5 μM GA3, wild type, 18 DAI) | Germination of GA2ox6ACT seeds ([1]; 5 μM GA3 in MS agar medium) | Root system compared to the mutant without GA treatment ([2]; GA2ox6ACT mutant) | Time at which the first tiller developed ([2]; GA2ox6ACT mutant (9 DAI without GA treatment)) [DAI] | Tillers produced compared to plants without GA treatment [3] | Final height of Ubi::GA2ox6 transgenic plants relative to the wild type [4] | Height of wild type plant ([4]; wild type) | GA2ox6 mRNA accumulation in leaves and roots (GA2ox6 mRNA) | Conversion of GA53 to GA97 (2β-hydroxylation) [5]
C=C1C[C@]23C[C@@]1(O)CC[C@H]2[C@@]12C=C[C@H](O)[C@@](C)(C(=O)O1)[C@H]2[C@@H]3C(=O)O [GA3] | significantly reduced | enhanced | significantly reduced | enhanced | effectively enhanced | up to 84 % of the wild type | only slightly enhanced | promoted germination | significantly reduced | 16 | 2-3 times fewer | 63 % of the WT | not altered | unaffected | 
B1 |  |  |  |  |  |  |  |  |  |  |  |  |  |  | could convert GA53 to GA97
B2 |  |  |  |  |  |  |  |  |  |  |  |  |  |  | could convert GA53 to GA97
